In PubChem BioAssay AID330 (DTP/NCI, 2004):
Where “and” joins values, the source holds several entries; their conditions need not be identical. Equal values may be shown once. Toxic doses and inconclusive results are not listed. How the source made its calls: active means survival T/C of 150% or more; inactive means T/C below 125% in these data.

Tested on: P388 leukemia ip, CD2F1 mice, survival T/C
Assay: NCI In Vivo Anticancer Drug Screen. Data for tumor model P388 Leukemia (intraperitoneal) in CD2F1 (CDF1) mice
Conditions: endpoint: median survival time, higher = longer survival
Summary of the method: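 Mice carrying the transplanted tumor received test compound or vehicle. Survival was recorded in each group, and the value is the treated-group measurement divided by that of the vehicle-treated control group.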

[1] = dose: 100.0 mg/kg/injection, schedule: Q04DX002 (ip), vehicle: Klucel (hydroxypropylcellulose) (HPC)
[2] = dose: 200.0 mg/kg/injection, schedule: Q04DX002 (ip), vehicle: Klucel (hydroxypropylcellulose) (HPC)
[3] = dose: 400.0 mg/kg/injection, schedule: Q04DX002 (ip), vehicle: Klucel (hydroxypropylcellulose) (HPC)
[4] = dose: 50.0 mg/kg/injection, schedule: Q01DX009 (ip), vehicle: saline with Tween-80
[5] = dose: 200.0 mg/kg/injection, schedule: Q01DX001 (ip), vehicle: saline with Tween-80
[6] = dose: 400.0 mg/kg/injection, schedule: Q01DX001 (ip), vehicle: saline with Tween-80
[7] = dose: 60.0 mg/kg/injection, schedule: Q01DX005 (ip), vehicle: saline with Tween-80
[8] = dose: 120.0 mg/kg/injection, schedule: Q01DX005 (ip), vehicle: saline with Tween-80
[9] = dose: 240.0 mg/kg/injection, schedule: Q01DX005 (ip), vehicle: saline with Tween-80
[10] = dose: 25.0 mg/kg/injection, schedule: Q04DX002 (ip), vehicle: saline with Tween-80
[11] = dose: 50.0 mg/kg/injection, schedule: Q04DX002 (ip), vehicle: saline with Tween-80
[12] = dose: 100.0 mg/kg/injection, schedule: Q04DX002 (ip), vehicle: saline with Tween-80
[13] = dose: 50.0 mg/kg/injection, schedule: Q01DX009 (ip), vehicle: saline
[14] = dose: 25.0 mg/kg/injection, schedule: Q01DX009 (ip), vehicle: water
[15] = dose: 50.0 mg/kg/injection, schedule: Q01DX009 (ip), vehicle: water
[16] = dose: 100.0 mg/kg/injection, schedule: Q01DX009 (ip), vehicle: water

Measured: T/C

COC(=O)C(CCCCNC(=O)OCc1ccccc1)NC(=O)C(Cc1ccccc1)NC(=O)OC(C)(C)C (stereo not given)
inactive: dose: 50.0 mg/kg/injection, schedule: Q01DX005 (ip), vehicle: Klucel (hydroxypropylcellulose) (HPC) 99 % of control | dose: 100.0 mg/kg/injection, schedule: Q01DX005 (ip), vehicle: Klucel (hydroxypropylcellulose) (HPC) 97 % of control | dose: 200.0 mg/kg/injection, schedule: Q01DX005 (ip), vehicle: Klucel (hydroxypropylcellulose) (HPC) 99 % of control

C=C1C(=O)C23C(OC(=O)c4ccccc4)C1CCC2C12COC3(O)C(O)C1C(C)(C)CCC2O (stereo not given)
inactive: dose: 3.75 mg/kg/injection, schedule: Q01DX009 (ip), vehicle: saline with Tween-80 103 % of control and 107 % of control and 110 % of control | dose: 7.5 mg/kg/injection, schedule: Q01DX009 (ip), vehicle: saline with Tween-80 102 % of control and 112 % of control and 120 % of control | dose: 15.0 mg/kg/injection, schedule: Q01DX009 (ip), vehicle: saline with Tween-80 100 % of control and 118 % of control and 119 % of control | dose: 30.0 mg/kg/injection, schedule: Q01DX009 (ip), vehicle: saline with Tween-80 109 % of control and 115 % of control

O=C1CN2C(=O)C1(c1ccccc1)C(=O)NC2=S (stereo not given)
inactive: [1] 105 % of control | [2] 106 % of control | [3] 106 % of control

O=C1C(=O)c2ccccc2-c2ccccc21
inactive: dose: 6.25 mg/kg/injection, schedule: Q01DX009 (ip), vehicle: saline with Tween-80 104 % of control | dose: 12.5 mg/kg/injection, schedule: Q01DX009 (ip), vehicle: saline with Tween-80 104 % of control | dose: 25.0 mg/kg/injection, schedule: Q01DX009 (ip), vehicle: saline with Tween-80 108 % of control | [4] 100 % of control

NNP(=S)(NN)Oc1ccccc1
inactive: dose: 6.25 mg/kg/injection, schedule: Q01DX005 (ip), vehicle: Klucel (hydroxypropylcellulose) (HPC) 96 % of control | dose: 12.5 mg/kg/injection, schedule: Q01DX005 (ip), vehicle: Klucel (hydroxypropylcellulose) (HPC) 114 % of control | dose: 25.0 mg/kg/injection, schedule: Q01DX005 (ip), vehicle: Klucel (hydroxypropylcellulose) (HPC) 105 % of control

C/C(=N\NC(=O)c1ccccc1)c1cccc(/C(C)=N/NC(=O)c2ccccc2)n1.CC(=O)[O-].CC(=O)[O-].[Zn+2]
inactive: dose: 100.0 mg/kg/injection, schedule: Q01DX001 (ip), vehicle: saline with Tween-80 95 % of control | [5] 104 % of control | [6] 100 % of control

CC(C)c1ccc(/C=C(/NC(=O)c2ccccc2)c2nc3ccccc3s2)cc1
inactive: [7] 104 % of control | [8] 111 % of control | [9] 118 % of control

COc1ccc(/C=N\N=C(/[O-])c2ccccc2O)cc1.COc1ccc(/C=N\N=C(/[O-])c2ccccc2O)cc1.[Cu+2].[OH3+].[OH3+]
inactive: [10] 98 % of control | [11] 93 % of control | [12] 93 % of control

CCC1CN2CCC3(C(=O)Nc4ccccc43)C2CC1/C(=C/OC)C(=O)OC (stereo not given)
inactive: dose: 6.25 mg/kg/injection, schedule: Q01DX009 (ip), vehicle: saline 102 % of control | dose: 12.5 mg/kg/injection, schedule: Q01DX009 (ip), vehicle: saline 100 % of control | dose: 25.0 mg/kg/injection, schedule: Q01DX009 (ip), vehicle: saline 102 % of control | [4] 100 % of control | [13] 103 % of control

CN(C)CCSc1cc(O)c2c(c1O)C(=O)c1ccccc1C2=O
inactive: dose: 12.5 mg/kg/injection, schedule: Q04DX003 (ip), vehicle: water 107 % of control | [14] 102 % of control | dose: 25.0 mg/kg/injection, schedule: Q04DX003 (ip), vehicle: water 98 % of control | [15] 103 % of control | dose: 50.0 mg/kg/injection, schedule: Q04DX003 (ip), vehicle: water 102 % of control | [16] 102 % of control | dose: 100.0 mg/kg/injection, schedule: Q04DX003 (ip), vehicle: water 102 % of control | dose: 200.0 mg/kg/injection, schedule: Q01DX009 (ip), vehicle: water 97 % of control | dose: 200.0 mg/kg/injection, schedule: Q04DX003 (ip), vehicle: water 118 % of control

CN=C(N)N/N=C(\C)c1ccc2c(c1)Cc1cc(Cl)ccc1-2
inactive: dose: 12.5 mg/kg/injection, schedule: Q04DX002 (ip), vehicle: saline with Tween-80 112 % of control | [10] 113 % of control and 118 % of control | [11] 113 % of control and 118 % of control | [12] 102 % of control

O=C1NC(=O)c2ncccc21
inactive: dose: 100.0 mg/kg/injection, schedule: Q04DX003 (ip), vehicle: saline with Tween-80 100 % of control | dose: 200.0 mg/kg/injection, schedule: Q04DX003 (ip), vehicle: saline with Tween-80 100 % of control | dose: 400.0 mg/kg/injection, schedule: Q04DX003 (ip), vehicle: saline with Tween-80 100 % of control

CC1=CC(C)(O)C=C(C)C1=O
inactive: dose: 3.13 mg/kg/injection, schedule: Q01DX009 (ip), vehicle: water 105 % of control | dose: 6.25 mg/kg/injection, schedule: Q01DX009 (ip), vehicle: water 97 % of control | dose: 12.5 mg/kg/injection, schedule: Q01DX009 (ip), vehicle: water 96 % of control | [14] 100 % of control | [15] 99 % of control | [16] 98 % of control

NC(=NCCCC(NCc1ccccc1)C(=O)O)N[N+](=O)[O-] (stereo not given)
inactive: dose: 12.5 mg/kg/injection, schedule: Q01DX009 (ip), vehicle: Klucel (hydroxypropylcellulose) (HPC) 98 % of control | dose: 25.0 mg/kg/injection, schedule: Q01DX009 (ip), vehicle: Klucel (hydroxypropylcellulose) (HPC) 99 % of control | dose: 50.0 mg/kg/injection, schedule: Q01DX009 (ip), vehicle: Klucel (hydroxypropylcellulose) (HPC) 99 % of control and 100 % of control | dose: 100.0 mg/kg/injection, schedule: Q01DX009 (ip), vehicle: Klucel (hydroxypropylcellulose) (HPC) 99 % of control and 100 % of control | dose: 200.0 mg/kg/injection, schedule: Q01DX009 (ip), vehicle: Klucel (hydroxypropylcellulose) (HPC) 100 % of control and 96 % of control | dose: 400.0 mg/kg/injection, schedule: Q01DX009 (ip), vehicle: Klucel (hydroxypropylcellulose) (HPC) 94 % of control

CC(=O)Nc1ccc(SSc2ccc(NC(C)=O)s2)s1
inactive: dose: 50.0 mg/kg/injection, schedule: Q01DX001 (ip), vehicle: saline with Tween-80 86 % of control | [5] 90 % of control | [6] 97 % of control

COc1ccc(C2=C(Cl)C(=O)N(c3cccc(Cl)c3)C(=O)C2(Cl)Cl)cc1
inactive: [1] 100 % of control and 86 % of control (2×) | [2] 104 % of control and 91 % of control and 97 % of control | [3] 100 % of control and 122 % of control and 90 % of control | dose: 600.0 mg/kg/injection, schedule: Q04DX002 (ip), vehicle: Klucel (hydroxypropylcellulose) (HPC) 98 % of control and 109 % of control

CCc1ccc([O-])c(C=NCCCN(C)CCCN=Cc2cc(C)ccc2[O-])c1.[Co+3].[N-]=[N+]=[N-]
inactive: [7] 88 % of control | [8] 91 % of control | [9] 101 % of control

CP1(=O)CC2=C(CC2)C1
inactive: [13] 108 % of control | dose: 100.0 mg/kg/injection, schedule: Q01DX009 (ip), vehicle: saline 103 % of control | dose: 200.0 mg/kg/injection, schedule: Q01DX009 (ip), vehicle: saline 95 % of control

S=C(c1c(Cl)cccc1Cl)N1CN2CCCN(C2)C1
inactive: [4] 111 % of control | dose: 100.0 mg/kg/injection, schedule: Q01DX009 (ip), vehicle: saline with Tween-80 98 % of control | dose: 200.0 mg/kg/injection, schedule: Q01DX009 (ip), vehicle: saline with Tween-80 101 % of control
